Assay results taken from patent EP0326637A1, “New 2-anilinophenylacetic acid derivative” (Mikasa Seiyaku Co., Ltd., priority 1988, dated 1989).
Where a name gives a salt, the structure may show the parent alone. Read-outs that look alike come from different tables or passages of the source.

Key:
[1] = Solubility (description of the substance); assay type: physicochemical; settings: organic solvents
[2] = system: female mice of ICR strain; test: Analgesic and anti-capillary permeability effects according to Wittle's method (acetic acid stretching, PSB exudation); assay type: in vivo; settings: oral 25 mg/kg, 1% acetic acid i.p., compared with control Group 3 (P<0.01), no significant difference between Groups 1 and 2; for inhibitory activities of the stretching: stretchings counted for 20 minutes; for inhibitory activities of the exudation of the colorant from the peritoneal cavity: 4% Pontamine Sky Blue i.v.
From the text: (b) Analgesic and anti-capillary permeability effects according to Wittle's method:
Three groups of female mice of ICR strain weighing 22-28 g were used, each group consisting of 10 mice; one group (Group 1) was used for the administration of the compound of this invention, another group (Group 2) for the administration of diclofenac sodium salt and the other group (Group 3) as control. […] Immediately after the intraperitoneal injection, the number of stretchings of the treated mice were counted and recorded for 20 minutes. After this observation, the mice were immediately sacrificed by dislocation of cervical vertebrae and subjected to ventrotomy. The peritoneal cavity of each mouse was washed with 5 ml of distilled water to exudate PSB in the peritoneal cavity, and the amount of the colorant exudated was measured.

[3] = system: male rats of Wistar strain; assay type: in vivo
Description: (b) Gastric ulcerogenic action:
Three groups of male rats of Wistar strain weighing 300-340 g were used, each group consisting of 7 rats; one group (Group 1) was used for control, another group (Group 2) for the administration of the compound of this invention and the other group (Group 3) for the administration of diclofenac sodium salt. After 24 hour fasting prior to the test, the compound of this invention and the diclofenac sodium salt were orally administered each in a dose of 20 mg/kg to the rats of the relevant groups. Six hours after the administration, the rats were sacrificed by decaptation and their stomachs were immediately removed. A 5% formaline solution (10 ml) was injected through the cardia into the stomach cavity and the stomach was fixed overnight in a 10% formaline solution. Each fixed stomach was cut along the greater curvature, and the inside of the stomach was investigated by the naked eye to check whether ulcers and erosions occurred or not. An ulcerogenic and erosion index was 0.71±0.42 in Group 1, 1.13±0.40 in Group 2 and 17.57±4.28 in Group 3. The number of rats having ulcers or erosions was 3/7 (42.9%) in Group 1, 4/7 (57.1%) in Group 2 and 7/7 (100%) in Group 3.

[4] = system: mice of ICR strain; test: in vivo; settings: oral, male and female mice
Description: (§1) (a) Acute oral toxicity in mice:
(§2) Groups of male and female mice of ICR strain weighing 25-35 g were used for the test, each group consisting of 6 mice. […] LD₅₀ values of the compound of this invention were calculated for each concentration according to the Litchfield-Wilcoxon's method from the number of dead mice during one week.

[5] = in vivo; settings: mouse, in vivo, po, LD₅₀, oral administration, Litchfield-Wilcoxon's method, dead mice during one week
Description: as §1, §2

[6] = system: carrageenin-induced hind paw edema; test: Inhibitory effect on carrageenin-induced hind paw edema in rats; assay type: in vivo, rats of Wistar strain; settings: male Wistar rats, 8 per group, oral; reference drugs at LD₅₀ amount, compound of this invention equimolar to diclofenac sodium salt; compared with Control group (P<0.01); no significant difference between the test compounds
From the text: (a) Inhibitory effect on carrageenin-induced hind paw edema in rats:
40 Male rats of Wistar strain weighing 100-130 g were divided into the following 5 groups each consisting of 8 rats: 1. Control group, 2. Group for the administration of the compound of this invention, 3. Group for the administration of diclofenac Na, 4. Group for the administration of flurubiprofen and 5. Group for the administration of indomethacin. Prior to the administration of the test compounds, plantar injections 1% carrageenin solution were made to each rat to induce hind paw edema. To each rat of the Groups 3, 4 and 5, the LD₅₀ amount of the relevant test compound was orally administered in molar amounts. The compound of the present invention was administered in an equimolar amount to the diclofenac sodium salt.

Compound | solubility [1] | inhibitory activities of the stretching [2] | inhibitory activities of the exudation of the colorant from the peritoneal cavity [2] | number of rats having ulcers or erosions ([3]; rat, in vivo, po, 20 mg/kg) | ulcerogenic and erosion index ([3]; rat, in vivo, po, 20 mg/kg) | LD₅₀ values relative to those of diclofenac sodium salt [4] | LD50 at 168 h ([5]; female mice) | LD50 at 168 h ([5]; male mice) | swelling of the edema [6] | ulcerogenic and erosion index ([3]; male Wistar rats, 7 per group, 24 hour fasting, oral 20 mg/kg, six hours after administration)
Cc1oc(=O)oc1COC(=O)Cc1ccccc1Nc1c(Cl)cccc1Cl [compound of this invention, (5-methyl-2-oxo-1,3-dioxolen-4-yl)methyl 2-(2,6-dichloroanilino)phenylacetate] | soluble in organic solvents such as alcohols | significant difference | significant difference | 4/7 (57.1%) | 1.13±0.40 | approximately 3 times | 516 mg/kg | 460 mg/kg | significantly inhibited | –
O=C(O)Cc1ccccc1Nc1c(Cl)cccc1Cl [diclofenac sodium salt, reference compound] | – | significant difference | significant difference | – | – | – | – | – | significantly inhibited | 17.57±4.28
CC(C(=O)O)c1ccc(-c2ccccc2)c(F)c1 (stereo not drawn) [flurubiprofen] | – | – | – | – | – | – | – | – | significantly inhibited | –
COc1ccc2c(c1)c(CC(=O)O)c(C)n2C(=O)c1ccc(Cl)cc1 [indomethacin] | – | – | – | – | – | – | – | – | significantly inhibited | –
